Experimental findings from patent US6500820B1, “Pharmaceutical composition for neurotrophic action” (priority 1998, dated 2002) are described below.

The structures appear in SMILES notation.

The subject of experiment [1] is choline acetyltransferase (ChAT). Put plainly: choline acetyltransferase (ChAT) activity in rat septal neurons cultured on rat hippocampal astrocyte feeder layer. The experiment is classed as cell-based. The conditions noted are these: for ChAT activity: compound A 10-1000 nM. Here is the method:
This experiment was done by a method reported by Pharmacology of Neurotrophic Factors, Ann. Rev. Pharmacol. Toxicol., Vol.37, pages 239-267, (1997).
Astrocytes were obtained from the new-born Sprague-Dawley (SD) rat hippocampus by trypsin digestion and cultured in a serum-containing medium in a culture flask. The confluent astrocytes were harvested and seeded on 96 well plates at the density of 5×10^4 cells/well and served as the feeder layer for neurons after halting the overgrowth with 10 μM cytosine arabinoside. Neurons were taken from the septal area of E17 fetal SD rats by trypsin digestion and seeded on the astrocyte feeder layer at the density of 7.5×10^4 cells/well in a serum-free medium. On the next day, the compound was added to the culture with or without 3 ng/ml recombinant human NGF (rhNGF) and cultured further for 7 days. Then cells were lysed with 5 mM Tris-HCl (pH 7.4)/0.1% Triton X-100 and choline acetyltransferase (ChAT) activity was measured radiometrically by the method of Fonnum.

For the next experiment, the system named is CA1 neurons. Put plainly: 10-min forebrain ischemia (4-vessel occlusion) in rats, number of living CA1 pyramidal cells. In kind it is in vivo, rat. As to conditions: male Wistar rats, 10-min 4 VO; 10 mg/kg orally 1 hr before and 4 hr after ischemia, then once daily for 6 days; counted 7 days after occlusion; P<0.05. The method, then:
Male Wistar rats (Japan Clea Inc., Tokyo, Japan) aged 9 weeks were used. Rats were subjected to 10-min forebrain ischemia using a method reported by Pulsinelli W. A. and Brierley J. B., Stroke, Vol.10, pages 267-272, (1979). Compound A (10 mg/kg) was orally administered 1 hr before and 4 hr after the ischemic operation, and from the next day, it was administered once daily for 6 days.
Rats were sacrificed 7 days after occlusion for histopathological observation. Under deep pentobarbital anesthesia, rats were perfused transcardially with physiological saline solution. The brains were removed, soaked in FAM (formaline:acetic acid:methanol=1:1:8) solution, and embedded in paraffin. Serial coronal sections (6 μm) were cut at the level of the anterior hippocampus, approximately 3.8-4.3 mm posterior to the bregma and stained with hematoxilin and eosin. The number of living pyramidal cells per 250 μm length of CA1 sector were counted under a light microscope. The average of the right and left neuronal densities were defined as the neuronal density for each rat.
Group differences in the number of CA1 pyramidal cells were analyzed using Student t-tests.

Where [2] appears, read: in the presence of 3 ng/ml rhNGF, cultured 7 days (FIG. 2).
Setting [3] is: without rhNGF, cultured 7 days, rat septal neurons on astrocyte feeder layer (FIG. 1).

`Nc1c2c(nc3ccccc13)CCCC2` [tacrine, reference compound]: the ChAT activity result in experiment [1] (setting [2]) and in experiment [1] (setting [3]) was “did not affect ChAT activity” each time.

Regarding `O=C(CCC1CCN(Cc2ccccc2)CC1)c1ccc2c(c1)NCCCC2.O=C(O)/C=C/C(=O)O` [compound A, 3-[1-(phenylmethyl)-4-piperidinyl]-1-(2,3,4,5-tetrahydro-1H-1-benzazepin-8-yl)-1-propanone fumarate], the “low concentration from which neurotrophic action is shown” value in experiment [1] (ChAT activity in rat septal neurons, with or without rhNGF) came to 10 nm. Moreover, the ChAT activity result in experiment [1] (setting [2]) is reported as “markedly elevated ChAT activity”; in experiment [1] (setting [3]) it was “apparently increased ChAT activity”. Also, the “number of CA1 pyramidal cells (survival of CA1 neurons) versus vehicle-treated 4 VO control” value with CA1 neurons is recorded as “significantly greater than that of the vehicle-control”.
